Literature values, collected in patent US20140275257A1, “N-ACETYL CYSTEINE COMPOSITIONS IN THE TREATMENT OF SYSTEMIC LUPUS ERYTHEMATOSUS” (Foundation for the State University of New York, priority 2013, published 2014).

Assays:
[1] = effects counter to those reported for NAC; Samstrand et al (1999); cited from earlier work
[2] = test system: CD4+/CD25+/FoxP3+ T cells; conditions: Lai et al. (2010); cited from earlier work
[3] = test system: MRL/lpr lupus mouse model; conditions: cited from earlier work
[4] = test system: human SLE patients; conditions: patients resistant or intolerant to conventional medications; Fernandez et al. (2006); cited from earlier work

Row | SMILES | bioactive at doses less than NAC [1] | CD4+/CD25+/FoxP3+ T cells in patients with SLE [2] | survival of lupusprone MRL/lpr lupus mouse model ([3]; Warner et al. (1994)) | disease activity in murine lupus ([3]; blockade of mTOR) | disease activity in human SLE patients [4]
1 | CC(=O)N[C@@H](CSSC[C@H](NC(C)=O)C(=O)O)C(=O)O [oxidized form of NAC] | 10-100 fold | – | – | – | –
2 | CO[C@H]1C[C@@H]2CC[C@@H](C)[C@@](O)(O2)C(=O)C(=O)N2CCCC[C@H]2C(=O)O[C@H]([C@H](C)C[C@@H]2CC[C@@H](O)[C@H](OC)C2)CC(=O)[C@H](C)/C=C(\C)[C@@H](O)[C@@H](OC)C(=O)[C@H](C)C[C@H](C)/C=C/C=C/C=C/1C [rapamycin] | – | expanded | prolonged survival | improves disease activity | improves disease activity
